{"source": "patent US10182981B2", "about": "“Method of regulating a skin condition” (priority 2015, dated 2019)", "tested_on": "IL-18", "assay": "Evaluation of skin sensitization potential (IL-18 production in HEK)", "assay_type": "cell-based, human", "conditions": "HEK lysate, 16 h", "source_text": "It is possible for a material to not be cytotoxic, and yet be unsafe due to provoking an allergic reaction upon skin contact. Typically, initial exposure to an allergen sensitizes the immune system, and following exposures cause an allergic response. Recent progress in understanding the mechanisms of skin sensitization identified interleukin-18 (IL-18) production in normal human epidermal keratinocytes (HEK) as a useful biomarker for skin contact sensitization (Corsini, et al., “Use of IL-18 Production In a Human Keratinocyte Cell Line to Discriminate Contact Sensitizers from Irritants and Low Molecular Weight Respiratory Allergens.” Toxicol In Vitro. 2009 August; 23(5):789-96; Teunis, et al., “Transfer of a Two-tiered Keratinocyte Assay: IL-18 Production by NCTC2544 to Determine the Skin Sensitizing Capacity and Epidermal Equivalent Assay to Determine Sensitizer Potency.” Toxicol In Vitro. 2013 April; 27(3):1135-50). […] Thus, IL-18 production in HEK was evaluated to determine sensitization potential.\nNormal human adult epidermal keratinocytes (HEK) were cultured as described above for the cytoxicity evaluation. […] The cell lysates were collected, and IL-18 was quantified using Human IL-18 ELISA Kit (Catalog #7620, produced by MBL International Co., Woburn, Mass., USA). […] Fold changes of IL-18 levels between test articles and respective vehicle controls were calculated and compared to pPD. […]"}
{"smiles": "Nc1ccc(N)cc1", "note": "[benchmark sensitizer, para-phenylenediamine]", "values": [{"measurement": "IL18 Maximum fold change vs vehicle control", "value": 7.8, "unit": "fold)"}, {"measurement": "IL18 Maximum fold change vs vehicle control", "setting": "listed as para-phenylenediamine (pPD)", "value": "significantly induced IL-18"}]}
